Measured values reported in PubChem BioAssay AID330 (DTP/NCI, 2004).
“And” between values parts separate entries of the source, which are not always exact repeats. Identical values can stand only once. Toxic doses and inconclusive results are not listed. Rule for the calls: active = survival T/C of 150% or more; inactive = T/C below 125% in these data.

System: P388 leukemia ip, CD2F1 mice, survival T/C
Test: NCI In Vivo Anticancer Drug Screen. Data for tumor model P388 Leukemia (intraperitoneal) in CD2F1 (CDF1) mice
Settings: endpoint: median survival time, higher = longer survival
In short: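 Mice carrying the transplanted tumor received test compound or vehicle. Survival was recorded in each group, and the value is the treated-group measurement divided by that of the vehicle-treated control group.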

Measured: T/C

Nc1ncn(C2OC(CO)C(O)C2O)c(=O)n1 (configuration not stated)
active: dose: 0.38 mg/kg/injection, schedule: Q01DX009 (ip), vehicle: saline with Tween-80 154 % of control | dose: 0.75 mg/kg/injection, schedule: Q01DX009 (ip), vehicle: Klucel (hydroxypropylcellulose) (HPC) 163 % of control | dose: 0.75 mg/kg/injection, schedule: Q01DX009 (ip), vehicle: saline with Tween-80 181 % of control | dose: 0.75 mg/kg/injection, schedule: Q01DX009 (ip), vehicle: saline 166 % of control and 172 % of control and 173 % of control | dose: 1.0 mg/kg/injection, schedule: Q01DX005 (ip), vehicle: saline 172 % of control | dose: 1.0 mg/kg/injection, schedule: Q01DX005 (ip), vehicle: water 150 % of control | dose: 1.5 mg/kg/injection, schedule: Q01DX009 (ip), vehicle: Klucel (hydroxypropylcellulose) (HPC) 190 % of control | dose: 1.5 mg/kg/injection, schedule: Q01DX009 (ip), vehicle: saline with Tween-80 195 % of control | dose: 1.5 mg/kg/injection, schedule: Q01DX009 (ip), vehicle: saline 171 % of control and 185 % of control | dose: 1.56 mg/kg/injection, schedule: Q01DX009 (ip), vehicle: saline 224 % of control | dose: 2.0 mg/kg/injection, schedule: Q01DX005 (ip), vehicle: water 174 % of control | dose: 2.0 mg/kg/injection, schedule: Q01DX009 (ip), vehicle: saline 209 % of control and 210 % of control | dose: 2.59 mg/kg/injection, schedule: Q04DX003 (ip), vehicle: saline 162 % of control | dose: 2.7 mg/kg/injection, schedule: Q01DX009 (ip), vehicle: saline 233 % of control | dose: 3.0 mg/kg/injection, schedule: Q01DX009 (ip), vehicle: Klucel (hydroxypropylcellulose) (HPC) 245 % of control | dose: 3.13 mg/kg/injection, schedule: Q01DX009 (ip), vehicle: saline 262 % of control | dose: 4.0 mg/kg/injection, schedule: Q01DX005 (ip), vehicle: water 215 % of control | dose: 4.0 mg/kg/injection, schedule: Q01DX009 (ip), vehicle: saline 245 % of control and 265 % of control | dose: 4.32 mg/kg/injection, schedule: Q04DX003 (ip), vehicle: saline 178 % of control | dose: 4.5 mg/kg/injection, schedule: Q01DX009 (ip), vehicle: saline 282 % of control | dose: 7.2 mg/kg/injection, schedule: Q04DX003 (ip), vehicle: saline 200 % of control | dose: 8.0 mg/kg/injection, schedule: Q01DX005 (ip), vehicle: saline 252 % of control and 256 % of control and 290 % of control | dose: 8.64 mg/kg/injection, schedule: Q04DX002 (ip), vehicle: saline 160 % of control | dose: 12.0 mg/kg/injection, schedule: Q04DX003 (ip), vehicle: saline 247 % of control | dose: 12.5 mg/kg/injection, schedule: Q01DX005 (ip), vehicle: saline 162 % of control | dose: 12.5 mg/kg/injection, schedule: Q01DX009 (ip), vehicle: saline 196 % of control | dose: 14.4 mg/kg/injection, schedule: Q04DX002 (ip), vehicle: saline 175 % of control | dose: 16.0 mg/kg/injection, schedule: Q01DX005 (ip), vehicle: saline 273 % of control | dose: 20.0 mg/kg/injection, schedule: Q01DX009 (ip), vehicle: saline 223 % of control | dose: 20.0 mg/kg/injection, schedule: Q04DX003 (ip), vehicle: saline 279 % of control | dose: 24.0 mg/kg/injection, schedule: Q04DX002 (ip), vehicle: saline 200 % of control | dose: 25.0 mg/kg/injection, schedule: Q01DX005 (ip), vehicle: saline 176 % of control | dose: 25.0 mg/kg/injection, schedule: Q01DX009 (ip), vehicle: saline 196 % of control | dose: 33.0 mg/kg/injection, schedule: Q01DX009 (ip), vehicle: saline 233 % of control | dose: 40.0 mg/kg/injection, schedule: Q04DX002 (ip), vehicle: saline 217 % of control | dose: 44.0 mg/kg/injection, schedule: Q01DX005 (ip), vehicle: saline 178 % of control | dose: 49.0 mg/kg/injection, schedule: Q01DX001 (ip), vehicle: saline 165 % of control | dose: 50.0 mg/kg/injection, schedule: Q01DX005 (ip), vehicle: saline 189 % of control | dose: 50.0 mg/kg/injection, schedule: Q01DX009 (ip), vehicle: saline 215 % of control | dose: 67.0 mg/kg/injection, schedule: Q01DX005 (ip), vehicle: saline 181 % of control | dose: 100.0 mg/kg/injection, schedule: Q01DX005 (ip), vehicle: saline 182 % of control and 196 % of control | dose: 150.0 mg/kg/injection, schedule: Q01DX005 (ip), vehicle: saline 187 % of control | dose: 200.0 mg/kg/injection, schedule: Q01DX005 (ip), vehicle: saline 185 % of control and 214 % of control
inactive: dose: 0.19 mg/kg/injection, schedule: Q01DX009 (ip), vehicle: saline with Tween-80 122 % of control | dose: 6.0 mg/kg/injection, schedule: Q01DX009 (ip), vehicle: Klucel (hydroxypropylcellulose) (HPC) 95 % of control | dose: 8.0 mg/kg/injection, schedule: Q01DX005 (ip), vehicle: water 66 % of control | dose: 110.0 mg/kg/injection, schedule: Q01DX001 (ip), vehicle: saline 100 % of control | dose: 200.0 mg/kg/injection, schedule: Q01DX009 (ip), vehicle: saline 110 % of control | dose: 400.0 mg/kg/injection, schedule: Q01DX009 (ip), vehicle: saline 88 % of control

COC(=O)/C=C(\I)C(=O)OC
inactive: dose: 3.13 mg/kg/injection, schedule: Q01DX009 (ip), vehicle: saline with Tween-80 104 % of control | dose: 6.25 mg/kg/injection, schedule: Q01DX009 (ip), vehicle: saline with Tween-80 101 % of control | dose: 12.5 mg/kg/injection, schedule: Q01DX009 (ip), vehicle: saline with Tween-80 92 % of control

C1CC[N-]CC1.C1CC[N-]CC1.C1CC[N-]CC1.[Cr+6].[N-]=C=S.[N-]=C=S.[N-]=C=S
inactive: dose: 100.0 mg/kg/injection, schedule: Q04DX002 (ip), vehicle: acetone 97 % of control | dose: 100.0 mg/kg/injection, schedule: Q04DX002 (ip), vehicle: distilled water + alcohol 99 % of control | dose: 200.0 mg/kg/injection, schedule: Q04DX002 (ip), vehicle: acetone 97 % of control

Cc1cc2c(=O)[nH]c(N)nc2nc1C
inactive: dose: 50.0 mg/kg/injection, schedule: Q01DX005 (ip), vehicle: saline with Tween-80 100 % of control | dose: 100.0 mg/kg/injection, schedule: Q01DX005 (ip), vehicle: saline with Tween-80 96 % of control | dose: 200.0 mg/kg/injection, schedule: Q01DX005 (ip), vehicle: saline with Tween-80 102 % of control

c1ccc2c(NCC3CCNCC3)c3ccccc3nc2c1
inactive: dose: 25.0 mg/kg/injection, schedule: Q04DX002 (ip), vehicle: saline with Tween-80 124 % of control | dose: 50.0 mg/kg/injection, schedule: Q04DX002 (ip), vehicle: saline with Tween-80 112 % of control

Nc1nc(=S)c2[nH]c(N=Nc3ccc(S(=O)(=O)O)cc3)nc2[nH]1
inactive: dose: 6.25 mg/kg/injection, schedule: Q04DX003 (ip), vehicle: saline 123 % of control

CC(=O)OCC1OC(n2cnc(C(N)=S)c2N)C(OC(C)=O)C1OC(C)=O (configuration not stated)
inactive: dose: 60.0 mg/kg/injection, schedule: Q01DX005 (ip), vehicle: saline with Tween-80 100 % of control | dose: 120.0 mg/kg/injection, schedule: Q01DX005 (ip), vehicle: saline with Tween-80 103 % of control | dose: 240.0 mg/kg/injection, schedule: Q01DX005 (ip), vehicle: saline with Tween-80 110 % of control

CC(C)=NOC1CCCCC1OS(=O)(=O)c1ccc(C)cc1 (configuration not stated)
inactive: dose: 50.0 mg/kg/injection, schedule: Q01DX009 (ip), vehicle: saline with Tween-80 94 % of control | dose: 100.0 mg/kg/injection, schedule: Q01DX009 (ip), vehicle: saline with Tween-80 95 % of control | dose: 200.0 mg/kg/injection, schedule: Q01DX009 (ip), vehicle: saline with Tween-80 110 % of control

Cc1cc(=O)c(C#N)c(C)s1
inactive: dose: 100.0 mg/kg/injection, schedule: Q04DX002 (ip), vehicle: saline with Tween-80 107 % of control | dose: 200.0 mg/kg/injection, schedule: Q04DX002 (ip), vehicle: saline with Tween-80 100 % of control | dose: 400.0 mg/kg/injection, schedule: Q04DX002 (ip), vehicle: saline with Tween-80 110 % of control

O=C1c2ccccc2C(=O)N1SN1C(=O)c2ccccc2C1=O
inactive: dose: 50.0 mg/kg/injection, schedule: Q01DX009 (ip), vehicle: Klucel (hydroxypropylcellulose) (HPC) 110 % of control | dose: 100.0 mg/kg/injection, schedule: Q01DX009 (ip), vehicle: Klucel (hydroxypropylcellulose) (HPC) 109 % of control | dose: 200.0 mg/kg/injection, schedule: Q01DX009 (ip), vehicle: Klucel (hydroxypropylcellulose) (HPC) 102 % of control | dose: 400.0 mg/kg/injection, schedule: Q01DX009 (ip), vehicle: Klucel (hydroxypropylcellulose) (HPC) 109 % of control

C=C1CC[C@H]2C(C)=CC[C@@H]3[C@H](OC(=O)[C@H]3CN3CCN(c4ccc(C)c([N+](=O)[O-])c4)CC3)[C@@H]12
inactive: dose: 100.0 mg/kg/injection, schedule: Q04DX002 (ip), vehicle: saline 97 % of control | dose: 200.0 mg/kg/injection, schedule: Q04DX002 (ip), vehicle: saline 99 % of control | dose: 400.0 mg/kg/injection, schedule: Q04DX002 (ip), vehicle: saline 96 % of control
